# Experimental data reported in PMC9317316, “Synthesis and Evaluation of Some New 4H-Pyran Derivatives as Antioxidant, Antibacterial and Anti-HCT-116 Cells of CRC, with Molecular Docking, Antiproliferative, Apoptotic and ADME Investigations” (Pharmaceuticals, 2022).
# Read-outs that look alike come from different tables or passages of the source.
# Key:
# [1] = molecular target: T1, CDK2/CyclinA2 enzyme (Homo sapiens, UniProt P24941); assay: In vitro CDK2 inhibitory assay (Kinase-Glo); format: biochemical
# T1 construct: purchased BPS Biosciences, San Diego, CA, USA 79599
# Method: To further substantiate the promising results of the docking analyses of pyrans 4d and 4K in the ATP active site of CDK2, their in vitro potencies to inhibit the enzyme activity were evaluated over a concentration range of 0.01−10 µM.
# CDK-2 inhibition activity of the studied compounds 4d and 4k was evaluated using a commercial CDK2 […] (cat. no.: 79599; BPS Biosciences, San Diego, CA, USA) following the manufacturer’s instructions. Briefly, different concentrations of each compound or the positive control BMS-265246 (0.01, 0. 1, 1 or 10 µM) were incubated with 20 µL of diluted CDK2/CyclinA2 enzyme at 30 °C for 45 min. Following the addition of 50 µL Kinase-Glo® Reagent to each well, the plate was incubated at room temperature for 15 min. Then, the luminescence signal was measured using the microplate reader. The CDK2 inhibitory activity was expressed as inhibition percentage, which was determined by comparison with a control experiment for comparative purposes. IC50 values were deduced from the curves. All measurements were performed in triplicate.
# [2] = tested on: CDK2 protein in HCT-116 cells; assay: Quantitative determination of CDK2 concentration in HCT-116 cell lysates (Human CDK2 ELISA Kit); format: cell-based; conditions: negative control 7.466 ng/mL
# Method: First, the commercial Human CDK2 ELISA Kit was used to estimate concentrations of the protein in the lysate of HCT-116 cells treated with 4d and 4k. The results were compared with the positive (cells treated with the reference CDK inhibitor, BMS-265246) and negative control experiments.
# The in vitro quantitative measurement of concentration of CDK2 in lysates of HCT-116 cells was carried out using a commercial Human CDK2 ELISA Kit (cat. no.: LS-F22176; LifeSpan Biosciences Inc., Seattle, WA, USA) in the presence or absence of the studied compounds (4d and 4k), following the manufacturer’s instructions. Briefly, standards, blanks or samples were first incubated in the corresponding wells for 90 min at 37 °C. Then, biotinylated detection antibody was added to each well and the plate was incubated for 1 h at 37 °C followed by the addition of an Avidin–Horseradish Peroxidase (HRP) conjugate which binds to the biotin. After incubation of the mixture for 30 min at 37 °C, unbound Avidin–HRP conjugate was washed away and a TMB substrate was then added which reacts with the HRP enzyme, resulting in color development. After that, the reaction was stopped using a sulfuric acid stop solution to terminate the color-development reaction and the optical density of each well was measured using a microplate reader at 450 nm. BMS-265246 was used as the standard drug for inhibition of CDK2. All measurements were performed in triplicate.
# [3] = DPPH radical scavenging assay; conditions: for IC50: 0.03 to 1 mg/mL, 1 h, mean ± SD, triplicate, read-out: IC50 (mM) for DPPH Scavenging Potency
# Outline: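 Ethanolic DPPH mixed with samples at 0.03 to 1 mg/mL, kept 1 h at room temperature in darkness, then absorbance read at 519 nm against compound-free control. Scavenging percentage computed as (1 − Acompound/Acontrol) × 100; IC50 interpolated from scavenging-versus-concentration plot.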
# [4] = Reducing power assay (FRAC, Fe3+ to Fe2+); conditions: 0-1 mg/mL, absorbance 700 nm
# Outline: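 Oyaizu method: compound (0–1 mg/mL) incubated with 0.2 M phosphate buffer pH 6.6 and 1% K3Fe(CN)6 at 50 °C for 20 min, then TCA, centrifugation, and 0.1% FeCl3 added to supernatant. Absorbance read at 700 nm; EC50 expressed in mM, BHT as reference.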
# [5] = tested on: B. cereus (ATCC 14579); assay: Antibacterial agar diffusion method (inhibition zone); format: cell-based
# Outline: (§1)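 CFU assay: 2 ×10^7 CFU/mL, BHI, compound, 60 min shaking 37 °C → serial dilution → agar plates 24 h 37 °C → residual CFU vs inoculum → IC50 (n=3). Agar diffusion: zone on top agar; ampicillin 10 µg/well reference.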
# [6] = tested on: B. subtilis (ATCC 6633); assay: as above; format: cell-based
# Outline: as §1
# [7] = tested on: E. coli (ATCC 25966); assay: as above; format: cell-based; conditions: E. coil (ATCC 25966)
# Outline: as §1
# [8] = tested on: E. faecalis (ATCC 29122); assay: as above; format: cell-based
# Outline: as §1
# [9] = tested on: K. pneumonia (ATCC 700603); assay: as above; format: cell-based
# Outline: as §1
# [10] = tested on: P. aeruginosa (ATCC 27853); assay: as above; format: cell-based
# Outline: as §1
# [11] = tested on: S. aureus (ATCC 25923); assay: as above; format: cell-based
# Outline: as §1
# [12] = tested on: S. enteric (ATCC 43972); assay: as above; format: cell-based
# Outline: as §1
# [13] = tested on: S. epidermidis (ATCC 14990); assay: as above; format: cell-based
# Outline: as §1
# [14] = tested on: B. cereus (ATCC 14579); assay: Antibacterial viability (CFU) assay, IC50; format: cell-based; conditions: Bacillus cereus, ATCC14579
# Outline: as §1
# [15] = tested on: B. subtilis (ATCC 6633); assay: Antibacterial viability (CFU) assay, IC50; format: cell-based
# Outline: as §1
# [16] = tested on: E. coli (ATCC 25966); assay: Antibacterial viability (CFU) assay, IC50; format: cell-based; conditions: Escherichia coli, ATCC25966; E. coil (ATCC 25966)
# Outline: as §1
# [17] = tested on: E. faecalis (ATCC 29122); assay: Antibacterial viability (CFU) assay, IC50; format: cell-based; conditions: Enterococcus faecalis, ATCC29122
# Outline: as §1
# [18] = tested on: K. pneumonia (ATCC 700603); assay: Antibacterial viability (CFU) assay, IC50; format: cell-based; conditions: Klebsiella pneumoniae, ATCC700603
# Outline: as §1
# [19] = tested on: P. aeruginosa (ATCC 27853); assay: Antibacterial viability (CFU) assay, IC50; format: cell-based; conditions: Pseudomonas aeruginosa, ATCC27853
# Outline: as §1
# [20] = tested on: S. aureus (ATCC 25923); assay: Antibacterial viability (CFU) assay, IC50; format: cell-based; conditions: Staphylococcus aureus, ATCC25923
# Outline: as §1
# [21] = tested on: S. enteric (ATCC 43972); assay: Antibacterial viability (CFU) assay, IC50; format: cell-based; conditions: read-out: IC50
# Outline: as §1
# [22] = tested on: S. epidermidis (ATCC 14990); assay: Antibacterial viability (CFU) assay, IC50; format: cell-based; conditions: Staphylococcus epidermidis, ATCC14990
# Outline: as §1
# [23] = tested on: HCT-116 cells; assay: Cell viability (cytotoxicity, LDH release) assay; format: cell-based; conditions: Homo sapiens, 24 h; for viability at 100 µg/mL: read-out: percent of viable cells
# Outline: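 Human colorectal HCT-116 cells exposed to compounds at 10, 25, 50 and 100 µg/mL in DMEM with 10% FBS for 24 h at 37 °C. LDH released into the supernatant measured at 600 nm; viability given as % of untreated control OD (mean ± SD, n = 3), 0.1% Triton X-100 as positive control.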
# [24] = Bacillus subtilis, ATCC6633, B. subtilis (ATCC 6633)
# [25] = read-out: Mean IC50 (µM) of cytotoxicity
# [26] = read-out: Mean IC50 (µg/mL) of cytotoxicity
SMILES,IC50 [3],DPPH Radical Scavenging Effenciency (%) at 1 mg/mL [3],EC50 [4],IZ (mm) [5],IZ (mm) [6],IZ (mm) [7],IZ (mm) [8],IZ (mm) [9],IZ (mm) [10],IZ (mm) [11],IZ (mm) [12],IZ (mm) [13],IC50 [14],"IC50 [15, 24]",IC50 [16],IC50 [17],IC50 [18],IC50 [19],IC50 [20],IC50 [21],further results
"CCCCOc1c(C(=O)c2c(F)cc(C)cc2F)c[nH]c2nncc1-2 [BMS-265246, reference compound]",–,–,–,–,–,–,–,–,–,–,–,–,–,–,–,–,–,–,–,–,"decrease of CDK2 activity ([1]; at 10 µM): 92.3%; IC50 ([1]; deduced from curves over 0.01-10 µM, read-out: IC50 against CDK2): 0.036 µM; concentration of CDK2 in lysate of treated HCT-116 cells [2]: 2.229 ng/mL"
"COC(=O)C1=C(C)OC(N)=C(C#N)C1c1cccc(O)c1Cl (stereo not drawn) [4f, 6-Amino-4-(2-chloro-3-hydroxy-phenyl)-5-cyano-2-methyl-4H-pyran-3-carboxylic acid methyl ester]",3.34 ± 0.131 mM,43.75 ± 1.77%,398 ± 45 µM,22.50 ± 0.71 mm,19.50 ± 0.71 mm,7.5 ± 0.71 mm,19.00 ± 1.41 mm,4.5 ± 0.7 mm,6.0 ± 1.4 mm,16.50 ± 0.71 mm,6.5 ± 0.7 mm,14.50 ± 0.71 mm,42.4 ± 2.65 µM,23.6 to 36.8 µM,95.7 ± 5.61 µM,34.6 ± 0.59 µM,82 ± 3.43 µM,105 ± 2.81 µM,38.4 ± 1.31 µM,94.2 ± 3.43 µM,"IC50 ([15]; B. subtilis (ATCC 6633)): 36.8 ± 0.87 µM; IC50 [22]: 33 ± 2.65 µM; viability at 100 µg/mL [23]: 55.5%; IC50 [23, 25]: 333 ± 13.4 µM; IC50 [23, 26]: 107 ± 4.29 µg/mL; melting point: 238 to 240 °C"
"COc1cccc(C2C(C#N)=C(N)OC(C)=C2C(=O)OCc2ccccc2)c1[N+](=O)[O-] (stereo not drawn) [4c, 6-Amino-5-cyano-4-(3-methoxy-2-nitro-phenyl)-2-methyl-4H-pyran-3-carboxylic acid benzyl ester]",2.24 ± 0.05 mM,57.10 ± 1.56%,1230 ± 67 µM,14.00 ± 1.41 mm,11.00 ± 1.41 mm,2.5 ± 0.71 mm,10.00 ± 1.41 mm,3.5 ± 0.7 mm,7.5 ± 0.7 mm,15.50 ± 0.71 mm,8.5 ± 0.7 mm,16.65 ± 0.50 mm,44.5 ± 0.83 µM,46.3 ± 1.68 µM,93.7 ± 4.98 µM,41.1 ± 2.18 µM,112 ± 1.42 µM,85.9 ± 2.61 µM,37 ± 2.02 µM,100 ± 2.61 µM,"IC50 [22]: 30.4 ± 1 µM; viability at 100 µg/mL [23]: 11 to 32.5%; IC50 [23, 25]: 102 ± 4.82 µM; IC50 [23, 26]: 43 ± 2.03 µg/mL; melting point: 190 to 192 °C"
